Source: PubChem BioAssay (NCI)
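Five concentrations, 48 hours, 96-well plates. GI50 marks 50% less growth. TGI marks complete inhibition of growth.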

Columns and labels:
Assay in all cases: NCI anticancer screen, dose series, 48 h
SK-MEL-2 melanoma = tested on: SK-MEL-2 melanoma
DU-145 prostate = tested on: DU-145 prostate
U251 CNS = tested on: U251 CNS
PC-3 prostate = tested on: PC-3 prostate
NCI/ADR-RES ovarian = tested on: NCI/ADR-RES ovarian
NCI-H226 lung = tested on: NCI-H226 lung
SK-MEL-28 melanoma = tested on: SK-MEL-28 melanoma
UO-31 renal = tested on: UO-31 renal
SF-295 CNS = tested on: SF-295 CNS
M14 melanoma = tested on: M14 melanoma

SMILES	GI50 (SK-MEL-2 melanoma)	TGI (SK-MEL-2 melanoma)	GI50 (DU-145 prostate)	TGI (DU-145 prostate)	GI50 (U251 CNS)	TGI (U251 CNS)	GI50 (PC-3 prostate)	TGI (PC-3 prostate)	GI50 (NCI/ADR-RES ovarian)	TGI (NCI/ADR-RES ovarian)	GI50 (NCI-H226 lung)	TGI (NCI-H226 lung)	GI50 (SK-MEL-28 melanoma)	TGI (SK-MEL-28 melanoma)	GI50 (UO-31 renal)	TGI (UO-31 renal)	GI50 (SF-295 CNS)	TGI (SF-295 CNS)	GI50 (M14 melanoma)	TGI (M14 melanoma)
CCCCOC(=O)c1ccc(NC(=O)CCl)cc1	4.89 µM	15.9 µM	1.81 µM	3.26 µM	1.71 µM	3.1 µM	3.24 µM	12.4 µM	2.79 µM	8.84 µM	4.82 µM	23.1 µM	3.87 µM	13.6 µM	1.39 µM	2.84 µM	10.5 µM	23.1 µM	3.07 µM	12.7 µM
Clc1ccc(C(c2ccc(Cl)cc2)N2CCNCC2)cc1	–	3.63 µM	–	7.07 µM	–	4.2 µM	–	7.15 µM	–	13.6 µM	–	–	–	3.45 µM	–	4.4 µM	–	5.74 µM	–	3.39 µM
CN1C(=O)C(=Cc2cn(Cc3ccccc3)c3ccccc23)C(=O)N(C)C1=O	–	> 67.6 µM	87.2 µM	> 100 µM	18.2 µM	> 71.3 µM	27 µM	> 100 µM	> 70 µM	> 100 µM	3.46 µM	27.8 µM	> 70.2 µM	> 100 µM	> 38.8 µM	> 81.4 µM	0.732 µM	> 100 µM	48.7 µM	> 100 µM
Cn1c(/C=C(\C#N)c2cccc(C(F)(F)F)c2)nc2c(N3CCOCC3)nc(Cl)nc21	1.47 µM	2.96 µM	1.22 µM	2.48 µM	1.32 µM	2.73 µM	0.726 µM	2.5 µM	1.72 µM	6.72 µM	1.36 µM	3.18 µM	1.48 µM	2.86 µM	0.422 µM	1.84 µM	1.83 µM	3.93 µM	0.733 µM	2.08 µM
CC(=O)OCc1ccc(O)c(C=O)c1	–	> 100 µM	–	> 100 µM	–	> 100 µM	–	> 100 µM	–	> 100 µM	–	> 100 µM	–	> 100 µM	–	> 100 µM	–	> 100 µM	–	> 100 µM
COc1cc2c(cc1OC)C(CC1(O)CCCCC1)N(S(=O)(=O)c1ccc(C)cc1)CC2 (stereo not drawn)	> 10 µM	> 10 µM	> 10 µM	> 10 µM	> 10 µM	> 10 µM	> 10 µM	> 10 µM	> 10 µM	> 10 µM	> 10 µM	> 10 µM	> 10 µM	> 10 µM	> 10 µM	> 10 µM	> 10 µM	> 10 µM	> 10 µM	> 10 µM
O=C1c2cc(-c3ccccc3)ccc2-c2c1c1ccc([N+](=O)[O-])cc1c(=O)n2CCCBr	> 50 µM	> 50 µM	> 50 µM	> 50 µM	> 31.9 µM	> 50 µM	> 50 µM	> 50 µM	> 50 µM	> 50 µM	> 47.4 µM	> 50 µM	> 50 µM	> 50 µM	> 50 µM	> 50 µM	> 37.4 µM	> 50 µM	> 50 µM	> 50 µM
